# In patent US6558435B2, “Reactive crystallization method to improve particle size” (Pfizer, Inc., priority 2000, dated 2003):
# Counter-ions that a name gives are not always drawn.
# Experiments:
# Assay type in all cases: physicochemical
# [1] = Particle size analysis (Aerosizer)
# Procedure: Flow of neat methanol and ethyl acetate was initiated through their respective jets at 20 ml/min for 5 seconds from separate reservoirs to establish steady state flow. By way of two 3-way valves the solutions of 5,8,14-triazatetracyclo[10.3.1.0^2,11.0^4,9]-hexadeca-2(11),3,5,7,9-pentaene free base solution and (L)-tartaric acid were switched on so they would impinge each other at the same 20 ml/min flow rate. The velocities through the jets were 13.4 meters/sec. After 1 minute of impingement the flows were stopped and the resulting slurry was allowed to age in the agitated receiver for 5 minutes. The slurry was vacuum filtered and dried at 40° C. overnight and delumped through a 500 micron sieve.
# [2] = Particle size of the jet milled seed (method not given)
# Procedure: A receiving vessel contained 250 ml of methanol and 250 ml of ethyl acetate to which 20 milligrams of jet milled 5,8,14-triazatetracyclo[10.3.1.0^2,11.0^4,9]-hexadeca-2(11),3,5,7,9-pentaene (L)-tartrate were added as seed. […] The receiver was equipped with magnetic stirrer to suspend the seed in the methanol-ethyl acetate solvent system. The impinging jet apparatus was submerged in the receiver vessel with both jets having inside diameters of 0.007 inches (ID).
# [3] = Particle size analysis by Malvern light scattering, hexane as dispersant; settings: for D90, 90% of the particles by volume less than / volume mean diameter, D[4,3] / fines (particles below about 1 micron detected): Malvern, hydrochloride monohydrate; for D90, 90% of the particles by volume less than / volume mean diameter, D[4,3]: dried crystals; for particle size distribution compared with batch crystallized and milled sample: impinging jet material vs comparative 15.6 kg sample
# Procedure: X-ray diffraction (XRD) and differential scanning calorimetry (DSC) indicated the correct form of Ziprasidone hydrochloride monohydrate was produced by the impinging jet reactive crystallization process. The dried powder crystals were sieved through a 600 micron sieve as a means to delump. The particles were analyzed by Malvern using hexane as a dispersant.
# The crystals were sieved through a 600 micron sieve to delump and the particles were analyzed by Malvern using hexane as a dispersant. […] According to patent EU 0 965 343 A2 (08.06.1999), the most preferred mean particle size of Ziprasidone hydrochloride monohydrates is in the 5-30 micron range obtained through milling operations which the present invention achieves without the need for high intensity milling. The particle sizes stipulated herein and in the claims refer to particle sizes determined with Malvern light scattering.
# In a comparative 15.6 kg sample produced by the typical batch crystallization process method followed by milling using a pin mill at 10,000 rpm, the volume mean diameter, D[4,3], was 23.6 microns with 90% of the particles by volume less than 51 microns, while 5.4% of the batch by the volume distribution had particle size less than 1 micron indicating a much greater number of fines. […]
# [4] = Dry particle sizing analysis (SympaTec)
# Procedure: The crystals were dried in a vacuum oven at 50° C. and 10 inches of Hg with an air bleed for 24 hours. The dried material was sieved through a 30 mesh (600 μm) screen as a means to delump. Differential scanning calorimetry and x-ray diffraction confirmed the complete conversion to the Voriconazole free-base. No unreacted Voriconazole camphorsulfonate was detected.
# Specification of product conventionally obtained by jet milling is 90% less than 130 microns and 50% less than 50 microns.
"D90, 90% of the particles by volume less than [3]","volume mean diameter, D[4,3] [3]",Structure (SMILES),fines (particles below about 1 micron detected) [3],particle size distribution compared with batch crystallized and milled sample [3],also measured
,,"O=C(O)C(O)C(O)C(=O)O.c1cnc2cc3c(cc2n1)C1CNCC3C1 [Example 5, 5,8,14-triazatetracyclo[10.3.1.0^2,11.0^4,9]-hexadeca-2(11),3,5,7,9-pentaene L-tartrate]",,,5% of particles less than [1]: 5 microns; 95% of the particles less than [1]: 15 microns; volume mean diameter ([1]; delumped through 500 micron sieve): 10 microns
,,"O=C(O)C(O)C(O)C(=O)O.c1cnc2cc3c(cc2n1)C1CNCC3C1 [seed, 5,8,14-triazatetracyclo[10.3.1.0^2,11.0^4,9]-hexadeca-2(11),3,5,7,9-pentaene (L)-tartrate]",,,volume mean diameter [2]: 2.7 microns
41 microns,22.5 microns,"O=C1Cc2cc(CCN3CCN(c4nsc5ccccc45)CC3)c(Cl)cc2N1 [Example 2, Ziprasidone hydrochloride monohydrate]",No particles of less that 1.0 micron were detected,narrower particle size distribution with fewer fines produced,
210 microns,104 microns,"O=C1Cc2cc(CCN3CCN(c4nsc5ccccc45)CC3)c(Cl)cc2N1 [Example 3, Ziprasidone hydrochloride monohydrate]",No particles below 1 micron were measured,,
,,"C[C@@H](c1ncncc1F)[C@](O)(Cn1cncn1)c1ccc(F)cc1F [Example 4, Voriconazole free base]",,,"50% of particles (D[v,0.50]) less than [4]: 18 microns; 90% of particles (D[v,0.9]) less than [4]: 41 microns; volume mean diameter ([4]; sieved through 30 mesh): 22 microns"
83 microns,43 microns,"O=C1Cc2cc(CCN3CCN(c4nsc5ccccc45)CC3)c(Cl)cc2N1 [Example 1, Ziprasidone hydrochloride monohydrate]",No particles with diameters of less that 0.9 micron were detected,narrower particle size distribution with fewer fines produced,
